Consider four compounds from ChEMBL document CHEMBL2384987, “Metabolites from Microcystis aeruginosa bloom material collected at a water reservoir near Kibbutz Hafetz Haim, Israel” (J Nat Prod, 2013).

Each structure is given as a SMILES string. The source made the active and inactive calls. The calls are words filed in the database; no cut-off is given here. *1 amine or outer side, *2 acyl side, *3 side chain or, on linkers, in order; H or OH if unused. Where a SMILES comes first, the peptide text is derived from it. Bridges are numbered along the chain shown (N, C = ends). [ ]: non-standard residue; d: D form. The star is where a group is joined. Propanoyl(2R-OH,3-(4-HOPh)) = O=C([C@H](O)Cc1ccc(O)cc1)*; X1 = CO[C@@H]1CC[C@H](C(=O)[*:2])N1[*:1]; NMeF = CN[C@@H](Cc1ccccc1)C(=O)O

Assay [1] is described as follows: Inhibition of chymotrypsin (unknown origin). Set-up: species or system Homo sapiens.
The nature of assay [2]: Inhibition of elastase (unknown origin). More on the design: species or system Homo sapiens.
Assay [3] has as its target Prothrombin (Homo sapiens) (UniProt P00734). Nature of the assay: Inhibition of thrombin (unknown origin) at 45.5 uM.
Assay [4] deals with T1, Trypsin (Homo sapiens, UniProt P07477+P07478+P35030). The assay can be described thus: Inhibition of trypsin (unknown origin) at 45.5 uM. Type of assay: protein assay.
For assay [5], the target named is T1, Trypsin. The assay can be described thus: Inhibition of trypsin (unknown origin). Type of assay: protein assay.

The term IC50 denotes the point on the concentration scale where inhibition reaches its midpoint. Read a low IC50 as greater potency. For the compound `CC(C)C[C@@H]1NC(=O)[C@@H](NC(=O)[C@H](CC(N)=O)NC(=O)[C@H](O)Cc2ccc(O)cc2)[C@@H](C)OC(=O)[C@H](C(C)C)NC(=O)[C@H](Cc2ccccc2)N(C)C(=O)[C@H](CC(C)C)N2C(=O)[C@H](CC[C@H]2O)NC1=O`, the results for the IC50 in assay [1] and in assay [2] were 4.3 µM and 17.6 µM, respectively. Moreover, the inhibition entry in assay [3] and in assay [4] was “inactive” each time.
With `CC(C)C[C@@H]1NC(=O)[C@@H](NC(=O)[C@H](CC(N)=O)NC(=O)[C@H](O)Cc2ccc(O)cc2)[C@@H](C)OC(=O)[C@H](C(C)C)NC(=O)[C@H](Cc2ccccc2)N(C)C(=O)[C@H](CC(C)C)N2C=CC[C@H](NC1=O)C2=O`, the IC50 in assay [1] was determined as 48.5 µM; in assay [2], 55.5 µM. In addition, the inhibition result in assay [3] and in assay [4] was “inactive” in each case.
On to `CO[C@@H]1CC[C@@H]2C(=O)N[C@@H](CC(C)C)C(=O)N(C)[C@@H](Cc3ccccc3)C(=O)N[C@@H](C(C)C)C(=O)O[C@H](C)[C@H](NC(=O)[C@H](CC(N)=O)NC(=O)[C@H](O)Cc3ccc(O)cc3)C(=O)N[C@@H](CC(C)C)C(=O)N21` ({Propanoyl(2R-OH,3-(4-HOPh))}-NTL[X1]L[NMeF]V; ester 2-C), for which the IC50 is 45.9 µM in assay [1] and 16.9 µM in assay [2]. Also, the inhibition entry in assay [3] and in assay [4] was “inactive” throughout.
Compound `CC(=O)O[C@@H]1CC[C@@H]2C[C@H](C(N)=O)N(C(=O)[C@@H](Cc3ccc(O)cc3)NC(=O)[C@@H](O)Cc3ccc(O)cc3)[C@@H]2C1` showed an IC50 in assay [5] of 45.5 µM.
